# In ChEMBL document CHEMBL3132769, “Fragment growing to retain or alter the selectivity of anchored kinase hinge-binding fragments” (Medchemcomm, 2014):
# Key:
# [1] = biological target: T1, Aurora kinase C (Homo sapiens) (UniProt Q9UQB9); experiment: Inhibition of human full length AurC expressed in baculovirus assessed as substrate phosphorylation using fluorescence-labelled peptides as substrate at 95 uM after 90 mins by microfluidic peptide phosphorylation assay
# T1 sequence (whole entry): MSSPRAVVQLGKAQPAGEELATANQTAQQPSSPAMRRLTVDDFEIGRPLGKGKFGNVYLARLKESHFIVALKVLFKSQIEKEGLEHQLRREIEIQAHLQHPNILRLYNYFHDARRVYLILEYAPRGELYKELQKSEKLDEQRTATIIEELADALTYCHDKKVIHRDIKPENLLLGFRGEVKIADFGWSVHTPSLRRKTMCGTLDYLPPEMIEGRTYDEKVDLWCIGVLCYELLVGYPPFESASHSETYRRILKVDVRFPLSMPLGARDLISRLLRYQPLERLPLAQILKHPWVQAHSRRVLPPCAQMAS
# [2] = biological target: Protein kinase C gamma type (Homo sapiens) (UniProt P05129); experiment: Inhibition of human truncated PKC gamma expressed in baculovirus assessed as substrate phosphorylation using fluorescence-labelled peptides as substrate at 8 uM after 90 mins by microfluidic peptide phosphorylation assay
# [3] = biological target: T2, cGMP-dependent protein kinase 1 (Homo sapiens) (UniProt Q13976); experiment: Inhibition of human full length PKG-1beta expressed in baculovirus assessed as substrate phosphorylation using fluorescence-labelled peptides as substrate at 1000 uM after 90 mins by microfluidic peptide phosphorylation assay
# T2 sequence (whole entry): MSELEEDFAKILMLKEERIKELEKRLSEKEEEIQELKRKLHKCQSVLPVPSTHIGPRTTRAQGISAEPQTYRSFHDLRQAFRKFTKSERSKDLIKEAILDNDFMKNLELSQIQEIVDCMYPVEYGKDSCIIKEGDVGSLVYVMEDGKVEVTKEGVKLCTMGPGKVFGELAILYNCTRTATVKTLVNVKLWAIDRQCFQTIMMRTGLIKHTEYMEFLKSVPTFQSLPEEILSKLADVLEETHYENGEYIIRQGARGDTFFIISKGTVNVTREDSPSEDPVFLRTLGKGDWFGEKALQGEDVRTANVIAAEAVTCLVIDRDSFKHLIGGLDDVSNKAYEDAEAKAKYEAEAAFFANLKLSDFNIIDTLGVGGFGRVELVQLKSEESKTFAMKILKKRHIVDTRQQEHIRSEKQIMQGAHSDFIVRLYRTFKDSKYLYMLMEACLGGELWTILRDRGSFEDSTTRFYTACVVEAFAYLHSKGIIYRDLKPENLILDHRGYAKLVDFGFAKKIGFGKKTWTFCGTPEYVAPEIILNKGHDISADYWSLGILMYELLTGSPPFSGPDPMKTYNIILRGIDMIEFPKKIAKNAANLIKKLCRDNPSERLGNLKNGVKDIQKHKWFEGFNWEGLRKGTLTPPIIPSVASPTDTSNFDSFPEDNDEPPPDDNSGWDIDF
# [4] = system: Tyrosine-protein kinase ABL1 (Homo sapiens), P00519 [H396P]; experiment: Inhibition of human truncated ABL H396P mutant expressed in baculovirus assessed as substrate phosphorylation using fluorescence-labelled peptides as substrate at 0.1 uM after 90 mins by microfluidic peptide phosphorylation assay
# [5] = biological target: T3, Interleukin-1 receptor-associated kinase 4 (Homo sapiens) (UniProt Q9NWZ3); experiment: Inhibition of human IRAK4 catalytic domain expressed in baculovirus assessed as substrate phosphorylation using fluorescence-labelled peptides as substrate at 0.1 uM after 90 mins by microfluidic peptide phosphorylation assay
# T3 sequence (whole entry): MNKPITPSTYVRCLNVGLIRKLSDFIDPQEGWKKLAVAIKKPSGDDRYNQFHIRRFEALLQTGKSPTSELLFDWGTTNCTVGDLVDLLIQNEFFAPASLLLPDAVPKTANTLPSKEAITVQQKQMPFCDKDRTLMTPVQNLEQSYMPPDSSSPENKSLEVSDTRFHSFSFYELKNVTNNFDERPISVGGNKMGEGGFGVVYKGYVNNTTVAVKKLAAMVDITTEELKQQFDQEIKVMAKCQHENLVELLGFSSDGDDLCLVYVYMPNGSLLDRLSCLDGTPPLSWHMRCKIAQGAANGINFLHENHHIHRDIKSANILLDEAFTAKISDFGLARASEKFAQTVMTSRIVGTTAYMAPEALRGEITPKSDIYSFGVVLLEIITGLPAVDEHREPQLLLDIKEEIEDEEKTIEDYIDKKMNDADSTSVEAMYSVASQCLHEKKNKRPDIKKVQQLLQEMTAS
# [6] = biological target: T2, cGMP-dependent protein kinase 1 (Homo sapiens); experiment: Inhibition of human full length PKG-1a expressed in baculovirus assessed as substrate phosphorylation using fluorescence-labelled peptides as substrate at 420 uM after 90 mins by microfluidic peptide phosphorylation assay
# [7] = biological target: T4, Serine/threonine-protein kinase D2 (Homo sapiens) (UniProt Q9BZL6); experiment: Inhibition of human full length PKD2 expressed in baculovirus assessed as substrate phosphorylation using fluorescence-labelled peptides as substrate at 70 uM after 90 mins by microfluidic peptide phosphorylation assay
# T4 sequence (whole entry): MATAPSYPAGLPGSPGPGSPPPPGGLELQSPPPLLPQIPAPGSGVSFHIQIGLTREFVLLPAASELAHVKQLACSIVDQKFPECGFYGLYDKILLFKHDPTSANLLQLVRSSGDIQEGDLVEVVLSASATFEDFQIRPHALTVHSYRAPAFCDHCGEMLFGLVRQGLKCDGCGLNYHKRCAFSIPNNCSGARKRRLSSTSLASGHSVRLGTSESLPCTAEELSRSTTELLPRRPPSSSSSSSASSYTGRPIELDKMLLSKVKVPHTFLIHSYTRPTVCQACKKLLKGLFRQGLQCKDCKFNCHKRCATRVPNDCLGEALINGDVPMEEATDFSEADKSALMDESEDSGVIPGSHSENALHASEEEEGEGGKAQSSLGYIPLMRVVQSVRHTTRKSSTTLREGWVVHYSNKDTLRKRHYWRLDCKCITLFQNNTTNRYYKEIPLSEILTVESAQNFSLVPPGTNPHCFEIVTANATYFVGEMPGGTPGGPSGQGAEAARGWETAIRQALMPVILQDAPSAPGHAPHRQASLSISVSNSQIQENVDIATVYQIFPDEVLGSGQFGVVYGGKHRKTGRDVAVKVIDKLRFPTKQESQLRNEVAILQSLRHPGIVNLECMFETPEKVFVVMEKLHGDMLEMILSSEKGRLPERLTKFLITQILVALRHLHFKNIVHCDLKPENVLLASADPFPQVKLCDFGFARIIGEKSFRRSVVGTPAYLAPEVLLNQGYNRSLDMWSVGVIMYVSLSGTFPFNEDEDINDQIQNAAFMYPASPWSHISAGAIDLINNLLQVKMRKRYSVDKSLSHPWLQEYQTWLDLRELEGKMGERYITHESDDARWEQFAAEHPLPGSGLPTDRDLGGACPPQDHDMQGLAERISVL
structure (smiles),measurement,setting,value
NCCc1ccc(-c2ncnc3[nH]cnc23)cc1,inhibition,[1],87.5%
NCC1CCN(c2ncnc3[nH]ccc23)CC1,inhibition,[2],86%
c1cnc2[nH]ccc2c1,inhibition,[3],87%
C[C@H](CN(C)C)Oc1nc(Nc2cc3cccc(Cl)c3cn2)cnc1C#N,inhibition,[4],1.5%
same,inhibition,[5],11.5%
c1nc(N2CCOCC2)c2nc[nH]c2n1,inhibition,[6],98%
CNCc1ccc(-c2ncnc3[nH]cnc23)cc1,inhibition,[7],77.5%
